Assay results published in patent US9987256B2, “CFTR corrector for the treatment of genetic disorders affecting striated muscle” (UNIVERSITA' DEGLI STUDI DI PADOVA, priority 2012, dated 2018).
Numbering of substitutions follows the chain as printed. Where a SMILES comes first, the peptide text is derived from it. The star is where a group is joined. Cbz = O=C(OCc1ccccc1)*

How the values were obtained:
[1] = test system: D307H CASQ2 mutant; conditions: CASQ2 D307H/D307H knock in mouse, systemic administration; cited from earlier work
[2] = biological target: T1, R98H mutant of alpha-sarcoglycan (Homo sapiens, UniProt Q16586, R98H); assay: Western blot rescue of R98H mutant of alpha-sarcoglycan in HEK293 cell model; assay type: cell-based; conditions: FIG. 1; HEK293, 24 hours; C 5 μM, B 10 μM, E 10 μM, F 10 μM, A 2 μM, D 10 μM; relative to R98H cells treated with DMSO
T1 construct: expressed in transfected cells; host or cells: HEK293
T1 sequence (Q16586 24-387 R98H): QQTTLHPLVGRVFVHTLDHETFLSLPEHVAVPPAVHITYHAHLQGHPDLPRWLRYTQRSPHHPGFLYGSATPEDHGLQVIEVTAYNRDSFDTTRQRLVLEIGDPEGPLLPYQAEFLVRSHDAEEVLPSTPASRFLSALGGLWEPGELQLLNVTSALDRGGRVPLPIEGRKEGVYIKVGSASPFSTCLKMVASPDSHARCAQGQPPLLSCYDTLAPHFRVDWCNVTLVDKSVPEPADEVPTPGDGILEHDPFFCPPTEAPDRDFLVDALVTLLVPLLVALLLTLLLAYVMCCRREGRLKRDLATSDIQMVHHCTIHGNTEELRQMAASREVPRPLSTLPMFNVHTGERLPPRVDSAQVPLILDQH
Experimental: HEK293 cells expressing different α-SG mutants have been treated with the Compounds A, B, C, D, E, F, H, I, Q, R, S and T according to protocols developed in CF studies [Loo and Clarke 2011; Becq et al 2011, Pedemonte et al 2005; Wang et al 2006]. Concentration and time-dependent recovery of treated mutants have been evaluated by Western blotting. The proteasome inhibitor MG132, at the concentration of 10 μM, or DMSO at 1‰ concentration, have been used as positive and negative control, respectively.
In FIG. 1 the result obtained by treating cells expressing the R98H mutant of α-SG for 24 hours with Compound C 5 μM, Compound B 10 μM, Compound E 10 μM, Compound F 10 μM, Compound A 2 μM, Compound D 10 μM are shown. At the end of treatments, cells were lysed and total proteins resolved by SDS-PAGE. Western blotting has been performed by using α-SG specific antibody and β-actin specific antibody, used to normalize loaded proteins (in FIG. 1, upper panel, a representative experiment is shown). The expression of α-SG in different samples has been determined by densitometric analysis of the western blotting experiments and indicated as percentage of the protein present in cells expressing the R98H mutant treated with DMSO (negative control).
In FIG. 4 the result obtained by treating cells expressing the R98H mutant of α-SG for 24 hours with either Compound H 15 μM, Compound I 10 μM, Compound T 15 μM, Compound A 2 μM, or DMSO at 1‰ concentration, used as negative control, are shown. Cells expressing the wild type form of α-sarcoglycan have been used for comparison. At the end of treatments, cells were lysed and total proteins resolved by SDS-PAGE. Western blotting has been performed by using α-SG specific antibody and β-actin specific antibody, used to normalize loaded proteins (in upper panel of FIG. 4, a representative experiment is shown). The expression of α-SG in different samples has been determined by densitometric analysis of the western blotting experiments and indicated as percentage of the protein present in cells expressing the wild type form of α-sarcoglycan. […] The compounds tested induced the recovery of the R98H mutant to levels that in some cases were even greater than those present in HEK cells expressing the wild type protein.
(§1) In FIG. 5 the result obtained by treating cells expressing the R98H mutant of α-SG for 24 hours with either increasing concentration of Compound R (1, 2.5, 5 μM) or DMSO at 1‰ concentration, used as negative control, are shown. Cells expressing the wild type form of α-sarcoglycan have been used for comparison. At the end of treatments, cells were lysed and total proteins resolved by SDS-PAGE. Western blotting has been performed by using α-SG specific antibody and β-actin specific antibody, used to normalize loaded proteins (in upper panel of FIG. 5, a representative experiment is shown). The expression of α-SG in different samples has been determined by densitometric analysis of western blotting experiments and indicated as percentage of the protein present in cells expressing the wild type form of α-sarcoglycan.
as §1, with “6” for “5”, “Q (5, 10 μM), increasing concentration of Compound S (10, 15” for “R (1, 2.5, 5”, “1% o” for “1‰”, “6,” for “5,”

[3] = biological target: T2, R164H mutant of SERCA1 (Bos taurus, UniProt Q0VCY0, R164H); assay: Western blot rescue of R164H mutant of SERCA1 in HEK293 cells; assay type: cell-based, bovine; conditions: FIG. 3; HEK293, 24 hours; C 5 μM, B 10 μM, E 10 μM, F 10 μM, A 2 μM, D 10 μM; relative to wild type
T2 construct: expressed in transfected cells; host or cells: HEK 293
T2 sequence (Q0VCY0 whole entry R164H): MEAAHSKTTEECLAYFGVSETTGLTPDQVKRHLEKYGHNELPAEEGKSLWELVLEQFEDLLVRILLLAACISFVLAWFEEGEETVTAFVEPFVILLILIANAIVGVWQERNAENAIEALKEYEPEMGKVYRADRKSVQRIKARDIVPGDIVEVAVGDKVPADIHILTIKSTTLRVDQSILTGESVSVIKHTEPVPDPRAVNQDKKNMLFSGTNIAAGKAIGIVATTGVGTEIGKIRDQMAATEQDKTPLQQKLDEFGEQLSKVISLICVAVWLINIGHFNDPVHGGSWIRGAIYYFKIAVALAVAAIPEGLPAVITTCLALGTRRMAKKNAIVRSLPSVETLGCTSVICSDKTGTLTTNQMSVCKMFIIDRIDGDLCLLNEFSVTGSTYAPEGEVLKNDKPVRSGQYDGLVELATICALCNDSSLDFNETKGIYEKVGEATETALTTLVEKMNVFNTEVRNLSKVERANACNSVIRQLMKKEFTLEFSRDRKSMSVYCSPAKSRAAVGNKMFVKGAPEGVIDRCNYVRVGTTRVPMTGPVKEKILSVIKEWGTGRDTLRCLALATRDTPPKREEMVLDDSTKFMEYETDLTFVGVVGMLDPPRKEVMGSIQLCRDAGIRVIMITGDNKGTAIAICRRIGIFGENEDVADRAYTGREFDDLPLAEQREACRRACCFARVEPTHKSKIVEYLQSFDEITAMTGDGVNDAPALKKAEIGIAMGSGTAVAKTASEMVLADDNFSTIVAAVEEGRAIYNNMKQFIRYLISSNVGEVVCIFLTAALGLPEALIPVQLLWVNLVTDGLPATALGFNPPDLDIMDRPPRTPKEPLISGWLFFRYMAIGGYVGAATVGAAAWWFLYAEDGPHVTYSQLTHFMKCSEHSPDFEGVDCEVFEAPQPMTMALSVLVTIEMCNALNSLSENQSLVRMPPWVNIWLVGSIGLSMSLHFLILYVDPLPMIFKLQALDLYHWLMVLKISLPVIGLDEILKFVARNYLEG
Experimental: In FIG. 3 are reported the results obtained with HEK 293 cells expressing the R164H mutant of SERCA1 treated for 24 hours with either Compound C 5 μM, Compound B 10 μM, Compound E 10 μM, compound F 10 μM, Compound A 2 μM, compound D 10 μM, MG132 (proteasome inhibitor) 10 μM, used as positive control or the vehicle DMSO at 1‰ concentration, used as negative control. At the end of treatments, cells were lysed and total protein resolved by SDS-PAGE. Western blotting analysis has been performed by using SERCA1 specific antibody and β-actin specific antibody, to normalize loaded proteins. In the upper panel of FIG. 3 is reported a representative Western blotting experiment. The expression of SERCA1 in different samples has been determined by densitometric analysis and indicated as percentage of SERCA 1 content present in wild type expressing cells treated with DMSO.
In FIG. 10 is reported the content of SERCA1 protein present in HEK 293 cells transfected with the R164H mutant of SERCA1 and treated for 24 hours with either Compound H 15 μM, Compound I 10 μM, compound Q 10 μM, Compound R 5 μM, Compound S 15 μM, Compound T 15 μM or the vehicle DMSO at 1‰ concentration, used as negative control. Cells expressing the wild type form of SERCA1 have also been used for comparison. At the end of treatments, cells were lysed and total protein resolved by SDS-PAGE. Western blotting analysis has been performed by using SERCA1 specific antibody and β-actin specific antibody, to normalize loaded proteins. The expression of SERCA1 in different samples has been determined by densitometric analysis and indicated as percentage of SERCA 1 content present in wild type expressing cells. The graph of FIG. 10 reports the average values (+/− standard error) of at least three independent experiments.

[4] = biological target: T3, V247M mutant of alpha-sarcoglycan (Homo sapiens, UniProt Q16586, V247M); assay: Confocal immunofluorescence, membrane localization of V247M alpha-sarcoglycan in HEK293 cells; assay type: cell-based; conditions: FIG. 2; HEK293, 24 hours; E 10 μM, D 10 μM, MG132 positive control; not permeabilized cells
T3 construct: expressed in transfected cells; host or cells: HEK 293
T3 sequence (Q16586 24-387 V247M): T1 sequence (Q16586 24-387 R98H) with H75R, V224M
Experimental: The cellular localization of either the V247M or R98H mutants, upon corrector treatments, has been verified by confocal immunofluorescence.
In the experiment reported in FIG. 2, HEK 293 cells expressing the V247M mutant have been treated for 24 hours with either Compound E (10 μM) or Compound D (10 μM), MG132 (positive control) or DMSO at 1‰ concentration (negative control). At the end of treatments, not permeabilized cells were incubated with a monoclonal antibody specific for an extracellular epitope of α-sarcoglycan in order to mark only the membrane resident α-sarcoglycan. By comparison, cells expressing the wild type form of α-sarcoglycan have also been used.

Row | alpha-sarcoglycan protein level (western blot, densitometry), rescue of R98H mutant [2] | SERCA1 protein level (western blot, densitometry), rescue of R164H mutant [3] | SMILES | cardiac arrhythmia developed as consequence of CASQ2 mutant degradation [1] | partial rescue of the mutant CASQ2, increase over not treated mice [1] [%] | plasma membrane localization of V247M alpha-sarcoglycan mutant [4]
1 |  |  | CC(C)C[C@H](NC(=O)[C@H](Cc1ccccc1)NC(=O)c1cnccn1)B(O)O [Velcade, bortezomib] | can be counteracted | 20 | 
2 | promote the rescue | promote the rescue | CC(c1nc(N2CCCCC2)c2ccccc2n1)N1CCN(S(=O)(=O)c2ccc(Cl)cc2)CC1 (stereo not shown) [Compound C, 2-{1-[4-(4-Chloro-benzensulfonyl)-piperazin-1-yl]ethyl}-4-piperidin-1-yl-quinazoline] |  |  | 
3 | promote the rescue | promote the rescue | O=C(Nc1ncc(C(c2ccccc2Cl)N2CC[C@@H](O)C2)s1)C1(c2ccc3c(c2)OCO3)CC1 (stereo in doubt) [Compound D, 1-(benzo[d][1,3]dioxol-5-yl)-N-(5-((S)-(2-chlorophenyl) ((R)-3-hydroxypyrrolidin-1-yl)methyl)thiazol-2-yl)cyclopropanecarboxamide] |  |  | promoted the correct plasma membrane localization
4 | promote the rescue | promote the rescue | COc1ccc(S(=O)(=O)N2CCN(C(C)c3nc(OC4CCCCC4)c4ccccc4n3)CC2)cc1 (stereo not shown) [Compound B, 4-Cyclohexyloxy-2-{1-[4-(4-methoxy-benzensulfonyl)-piperazin-1-yl]-ethyl}-quinazoline] |  |  | 
5 |  |  | CC(C)C[C@@H](C=O)NC(=O)[C@H](CC(C)C)NC(=O)[C@H](CC(C)C)NC(=O)OCc1ccccc1 [MG132, reference compound] (Cbz-Leu-Leu-Leu-aldehyde) |  |  | promoted V247M membrane localization
